Reference: PubChem BioAssay (NCI)
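Dose response: 5 concentrations. Exposure: 48 h. Format: 96-well plates. Endpoint: linear interpolation; highest concentration if not reached. The concentration for 50% growth inhibition is given as GI50. TGI: concentration producing complete growth inhibition.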

Key:
Assay in all cases: NCI-60 cell line screen, 48 h
[1] = test system: HL-60(TB) leukemia
[2] = test system: IGROV1 ovarian
[3] = test system: OVCAR-3 ovarian
[4] = test system: RXF 393 renal
[5] = test system: SF-539 CNS
[6] = test system: SK-MEL-5 melanoma
[7] = test system: SK-OV-3 ovarian
[8] = test system: SR leukemia
[9] = test system: UACC-62 melanoma
[10] = test system: UO-31 renal

| Compound | TGI [1] | TGI [2] | TGI [3] | TGI [4] | TGI [5] | TGI [6] | TGI [7] | TGI [8] | TGI [9] | TGI [10] | GI50 [1] | GI50 [2] | GI50 [3] | GI50 [4] | GI50 [5] | GI50 [6] | GI50 [7] | GI50 [8] | GI50 [9] | GI50 [10] |
| --- | --- | --- | --- | --- | --- | --- | --- | --- | --- | --- | --- | --- | --- | --- | --- | --- | --- | --- | --- | --- |
| O=C(Nc1cc(C(F)(F)F)ccc1Cl)C(=O)C(C(=O)c1ccc2ccccc2c1)C1OC(=O)c2ccccc21 (centres undefined) | 37.3 µM | > 92.5 µM | > 50.7 µM | 8.11 µM | 6.94 µM | 22.5 µM | > 100 µM | 14.9 µM | 32.9 µM | 28.2 µM |  |  |  |  |  |  |  |  |  |  |
| CC(C)OCN1COCN=C1NC#N | > 100 µM | > 100 µM | > 100 µM | > 100 µM | > 100 µM | > 100 µM | > 100 µM | > 100 µM | > 100 µM | > 100 µM |  |  |  |  |  |  |  |  |  |  |
| C/C=C(/C)C(=O)OC1C=C(CO)C(=O)C(OC(=O)/C(C)=C\C)C1C(C)C (centres undefined) | 3.86 µM | 2.43 µM | 1.66 µM | 2.54 µM | 2.69 µM | 2.66 µM | 4.48 µM | 3.69 µM | 1.98 µM | 2.57 µM | 0.403 µM | 0.96 µM | 0.48 µM | 1.13 µM | 1.38 µM | 1.33 µM | 2.27 µM | 0.315 µM | 0.644 µM | 1.29 µM |
| CCOC(=O)c1c(C)c2c(n1C)CSc1cc(S(=O)(=O)c3ccccc3)c(=O)[nH]c1-2 | > 100 µM | > 100 µM | 43.6 µM | > 100 µM | > 100 µM | 29.6 µM | > 100 µM | > 100 µM | 69.1 µM | > 100 µM | 25.2 µM | 16.7 µM | 17.1 µM | 44.4 µM | 24.5 µM | 13.2 µM | 28.9 µM | 29.3 µM | 14.2 µM | 17.4 µM |
| CNC(=O)OCc1nc(S(C)=O)n(C)c1COC(=O)NC (centres undefined) | > 100 µM | > 82.1 µM | > 100 µM | > 100 µM | > 100 µM | > 46.4 µM | > 73.3 µM | > 100 µM | > 65.9 µM | > 100 µM |  |  |  |  |  |  |  |  |  |  |
| Cc1ccnc2c1NC(=O)c1cccnc1N2C1CC1 | > 100 µM | > 100 µM | > 100 µM | > 100 µM | > 100 µM | > 100 µM | > 100 µM | > 100 µM | > 100 µM | > 100 µM | > 100 µM | > 100 µM | > 100 µM | > 100 µM | > 100 µM | > 100 µM | > 100 µM | > 100 µM | > 100 µM | 48.7 µM |
| Cc1cc(N2CCN(C)CC2)nc(NC2CCCC(Nc3ccnc4cc(Cl)ccc34)C2)n1 (centres undefined) | 4.09 µM | 7.85 µM | 5.75 µM | 3.17 µM | 3.31 µM | 3.17 µM | 11.5 µM | 5.23 µM | 3.54 µM | 2.86 µM | 2.09 µM | 2.24 µM | 2.25 µM | 1.42 µM | 1.68 µM | 1.76 µM | 3.35 µM | 0.643 µM | 1.8 µM | 1.49 µM |
| N#Cc1cccc(Nc2nccc(-c3cnn4ncccc34)n2)c1 | < 0.0129 µM | > 11.6 µM | 0.015 µM | 0.00791 µM | 0.0154 µM | 0.018 µM | > 25 µM |  | 0.0116 µM | > 25 µM | 0.00363 µM | 0.00937 µM | 0.00541 µM | 0.00269 µM | 0.00381 µM | 0.00618 µM | 0.014 µM | 0.0025 µM | 0.00396 µM | 0.00719 µM |
| Cc1oc2c(c1C(=O)c1ccccc1)C(=O)c1ccccc1C2=O | 17.1 µM | 15.9 µM | 6.22 µM | 8.2 µM | 24.7 µM | 4.15 µM | 20.7 µM | > 36.6 µM | 7.72 µM | 22.4 µM |  |  |  |  |  |  |  |  |  |  |
| COc1cc2c(cc1OC)-c1c(cc(OC)c(OC)c1OC)C2=O | > 100 µM | > 100 µM | > 100 µM | > 100 µM | > 100 µM | > 100 µM | > 100 µM | > 100 µM | > 100 µM | > 100 µM |  |  |  |  |  |  |  |  |  |  |
| O=C1c2cccc3c(N4CCN(c5ccc6c7c(cccc57)C(=O)N(CCN5CCNCC5)C6=O)CC4)ccc(c23)C(=O)N1CCN1CCNCC1 | 20.6 µM | 29.4 µM | 42.1 µM | 33 µM | 34.1 µM | 53.4 µM | 82.9 µM | 8.66 µM | 30.2 µM | 33 µM | 4.19 µM | 6.32 µM | 20.3 µM | 16.8 µM | 13 µM | 16.1 µM | 25.7 µM | 2.64 µM | 15 µM | 12.8 µM |
| O=C(Oc1ccc([N+](=O)[O-])cc1)N1CCC(C(O)(c2ccc3c(c2)OCO3)c2ccc3c(c2)OCO3)CC1 | > 100 µM | > 100 µM | > 100 µM | > 100 µM | > 100 µM | > 100 µM | > 100 µM | > 100 µM | > 100 µM | > 100 µM | > 100 µM | > 100 µM | > 100 µM | > 100 µM | > 100 µM | > 100 µM | > 100 µM | > 100 µM | > 100 µM | > 100 µM |
